Data published in US11965159B2, “Compositions and methods for regulating proteins and nucleic acids activities” (THE BROAD INSTITUTE, INC., priority 2019, dated 2024).
Entries after “also recorded” stand apart in the source; their conditions may differ.

Tests used:
[1] = system: U2OS.eGFP.PEST cells; test: Cell viability assay (ATP content) of U2OS.eGFP.PEST cells; type: cell-based, human; conditions: for cytotoxicity (ATP content) in secondary screen: 20 μM compounds, 48 h; for cellular ATP-levels: U2OS cells, up to 20 μM, 24 h
Protocol: FIG. 14—Cell viability assay (ATP content) of U2OS.eGPF.PEST cells in the presence of compounds. Measurement of ATP content of U2OS.eGFP.PEST cells upon incubating with 20 μM compounds for 48 h. Error bars represent ±S.D. from technical replicates (n=3).
FIG. 22—Cell viability assay (ATP content) of U2OS.eGFP.PEST cells in the presence of compounds. Measurement ATP content of U2OS.eGFP.PEST cells upon incubating with BRD7087 and BRD5779 (5-20 μM) for 24 h. Error bars represent ±S.D. from technical replicates (n=3).
FIG. 58. Cell viability assay (ATP content) of U2OS.eGFP.PEST cells in the presence of compounds. Measurement of ATP content of U2OS.eGFP.PEST cells upon incubating with 20 μM compound for 48 h. Error bars represent±S.D. from technical replicates (n=3).
FIG. 66. Cell viability assay (ATP content) of U2OS.eGFP.PEST cells in the presence of compounds. Measurement of ATP content of U2OS.eGFP.PEST cells upon incubating with BRD7087 and BRD5779 (5-20 μM) for 24 h. Error bars represent ±S.D. from technical replicates (n=3).

[2] = system: dCas9; test: dCas9-based transcriptional activation of HBG1 gene in HEK293FT cells (RT-qPCR); type: cell-based; conditions: for inhibition of the HBG1 transcriptional activation: 48 hours
Protocol: Transcription activation experiments and quantitative RT-PCR analyses. For transcription activation experiments 250,000 cells/well were plated in a 12 well plate. The cells were transiently transfected with a 1:1:1 mass ratio of the dCas9 plasmid, MS2-P65-HSF1 effector plasmid and the sgRNA plasmid targeting the HBG1 gene or an RFP control plasmid. A total of 1.6 μg plasmid DNA was transfected using Lipofectamine™ 2000 (Life Technologies™) according to manufacturer's protocol. Immediately after transfection, the cells were treated with an appropriate dose of the small molecule inhibitors for 48 hours following which the cells were harvested and RNA was extracted using the EZNA® Total RNA kit I (OMEGA) as per manufacturer's instructions. 1 μg total cellular RNA was used to perform reverse transcription using the High-Capacity cDNA Reverse Transcription Kit (Applied Biosystems™) or the qScript® cDNA Synthesis Kit (QUANTABIO). qPCR reactions were performed to quantify RNA expression using the TaqMan™ probes (Life Technologies™ HBG1/HBG2: Hs00361131_g1 and ACTB: Hs01060665_g1) and TaqMan™ Fast Advanced Master Mix (Life Technologies™) in 5 μL multiplexed reactions and 384-well format using the LightCycler® 480 Instrument II (ROCHE). For each sample, six technical replicates were performed. Data were analyzed using the LightCycler® 480 software (ROCHE) by the ΔΔCt method: Ct values for the gene of interest (HBG1) were normalized to Ct values for the housekeeping gene (ACTB) and fold-changes in the expression level of the gene of interest were normalized to RFP-transfected control. The data are reported as mean S.E.M. for technical replicates.
For transcription activation experiments 250,000 cells/well were plated in a 12 well plate. […] Data were analyzed using the LightCycler® 480 software (ROCHE) by the ΔΔCt method: Ct values for the gene of interest (HBG1) were normalized to Ct values for the housekeeping gene (ACTB) and fold-changes in the expression level of the gene of interest were normalized to RFP-transfected control. […]

[3] = system: CRISPR-Cas9 based immunity in S. aureus RN4220; test: Bacterial resistance study against phage (CRISPR immunity, OD600 growth curves); type: cell-based; conditions: 5-20 μM, 16 h, MOI 1
Protocol: Bacterial study. Plasmid pRH248 harboring SpCas9, tracrRNA and a single-spacer array ([…]) (SEQ ID NO:7) targeting phage DNM474 was constructed via BsaI cloning onto pDB114 as described in Heler et al 6. Plate reader growth curves of bacteria infected with phage were conducted as described previously with minor modifications 7. Overnight cultures were diluted 1:100 into 2 ml of fresh BHI supplemented with appropriate antibiotics and 5 mM CaCl2) and grown to an OD600 of ˜0.2. Immune cells carrying pRH248 were diluted with cells lacking CRISPR-Cas in a 1:10,000 ratio. Following a 15-minute pre-incubation with DMSO or with varying amounts of inhibitors (5-20 μM), the cultures were infected with DNM474 at an initial MOI of 1. To produce plate reader growth curves, 200 μL of infected cultures, normalized for OD600, were transferred to a 96-well plate in triplicate. OD600 measurements were collected every 10 minutes for 16 hours. Similarly, growth curves to evaluate the toxicity of the compounds at 20 μM (FIG. 32) were conducted on cultures lacking CRISPR in the absence of phage.
Bacterial study. […] Plate reader growth curves of bacteria infected with phage were conducted as described previously with minor modifications^7. […] To produce plate reader growth curves, 200 μL of infected cultures, normalized for OD600, were transferred to a 96-well plate in triplicate. […]

Compound	cytotoxicity (ATP content) in secondary screen [1]	cellular ATP-levels [1]	inhibition of the HBG1 transcriptional activation [2]	blockage of CRISPR-Cas9 immunity (sensitization of immune bacteria to phage, OD600) [3]	inhibition of transcriptional activation ([2]; 10 μM) [%]
COc1ccc(-c2ccc3c(c2)[C@H]2[C@H](CCN2Cc2ccncc2)[C@@H](CO)N3)cc1 [BRD5779, ((3aR,4S,9bR)-8-(4-Methoxyphenyl)-1-(pyridin-4-ylmethyl)-2,3,3a,4,5,9b-hexahydro-1H-pyrrolo[3,2-c]quinolin-4-yl)methanol]	non-toxic	did not significantly alter	dose-dependent inhibition	dose-dependent blockage of CRISPR-Cas9 based immunity; also recorded: able to sensitize the immune bacterial cells against target phage in a dose-dependent manner	–
OC[C@H]1Nc2ccc(-c3cccc(F)c3)cc2[C@H]2[C@@H]1CCN2Cc1ccncc1 [BRD7087, ((3aR,4S,9bR)-8-(3-Fluorophenyl)-1-(pyridin-4-ylmethyl)-2,3,3a,4,5,9b-hexahydro-1H-pyrrolo[3,2-c]quinolin-4-yl)methanol]	non-toxic	did not significantly alter	dose-dependent inhibition	dose-dependent blockage of CRISPR-Cas9 based immunity; also recorded: able to sensitize the immune bacterial cells against target phage in a dose-dependent manner; also recorded: higher activity	> 60
